In brackets after ≈: the same amount, converted by molar mass.
Legend:
[1] = tested on: Microsporum canis; assay: Antifungal activity against Microsporum canis; assay type: functional
[2] = tested on: Trichophyton benhamiae; assay: Antifungal activity measured against Trichophyton mentagrophytes; assay type: functional, Arthroderma benhamiae
[3] = tested on: Aspergillus fumigatus; assay: Antifungal activity measured against Aspergillus fumigatus; assay type: functional
[4] = tested on: Cavia porcellus; assay: In vivo antifungal activity by topical treatment of guinea pig dermatophytosis caused by Trichophyton mentagrophytes at a dose of 2%; assay type: functional
[5] = tested on: Epidermophyton floccosum; assay: Antifungal activity against Epidermophyton floccosum.; assay type: functional
[6] = tested on: Sporothrix schenckii; assay: Antifungal activity measured against Sporothrix schenck ii.; assay type: functional
[7] = tested on: Cavia porcellus; assay: In vivo antifungal activity by topical treatment of guinea pig dermatophytosis caused by Trichophyton mentagrophytes at a dose of 0.5%; assay type: functional
[8] = tested on: Candida parapsilosis; assay: Antifungal activity against Candida parapsilosis.; assay type: functional; conditions: Lodderomyces parapsilosis
[9] = tested on: Cavia porcellus; assay: In vivo antifungal activity by topical treatment of guinea pig dermatophytosis caused by Trichophyton mentagrophytes at a dose of 0.1%; assay type: functional
[10] = Antifungal activity against Trichophyton mentagrophytes.; assay type: functional, Arthroderma benhamiae; conditions: Trichophyton benhamiae
[11] = tested on: Cavia porcellus; assay: In vivo antifungal activity (% cure) was determined by topical treatment of guinea pig dermatophytosis caused by Trichophyton mentagrophytes at a dose of […]; assay type: functional
[12] = tested on: Cavia porcellus; assay: In vivo antifungal activity (% cure) was determined by topical treatment of guinea pig dermatophytosis caused by Trichophyton mentagrophytes at a dose of 0.5%; assay type: functional
[13] = tested on: Cavia porcellus; assay: In vivo antifungal activity (% cure) was determined by topical treatment of guinea pig dermatophytosis caused by Trichophyton mentagrophytes at a dose of 2%; assay type: functional
[14] = tested on: Candida parapsilosis; assay: Antifungal activity was measured against Candida parapsilosis.; conditions: Lodderomyces parapsilosis

| Compound | MIC [1] | MIC [2] | MIC [3] | MIC [5] | MIC [6] | MIC [8] | MIC [10] | MIC [14] | Activity [4] | Activity [7] | Activity [9] | Activity [11] | Activity [12] | Activity [13] |
| --- | --- | --- | --- | --- | --- | --- | --- | --- | --- | --- | --- | --- | --- | --- |
| CN(C/C=C/c1ccccc1)C(=O)c1cccc2ccccc12 | ≤ 1.6 µg/mL | ≤ 1.6 µg/mL | 12.5 µg/mL (≈ 41.5 µM) | ≤ 1.6 µg/mL | 25 µg/mL (≈ 82.9 µM) | > 100 µg/mL | – | – | 60% | 0% | 0% | – | – | – |
| CN(C/C=C/c1ccccc1)Cc1cccc2c1CCCC2 | 0.8 µg/mL (≈ 2.75 µM) | 0.4 µg/mL (≈ 1.37 µM) | > 100 µg/mL | 0.8 µg/mL (≈ 2.75 µM) | 3.1 µg/mL (≈ 10.6 µM) | 50 µg/mL (≈ 172 µM) | – | – | 50% | 22% | 0% | – | – | – |
| CN(C/C=C/c1ccccc1)CC1=CCc2ccccc21 | 3.1 µg/mL (≈ 11.3 µM) | – | > 100 µg/mL | 12.5 µg/mL (≈ 45.4 µM) | > 100 µg/mL | > 100 µg/mL | 1.6 µg/mL (≈ 5.81 µM) | – | – | – | – | – | – | – |
| CCCC/C=C/C/C=C/CN(C)Cc1cccc2ccccc12 | 0.1 µg/mL (≈ 0.325 µM) | 0.05 µg/mL (≈ 0.163 µM) | 25 µg/mL (≈ 81.3 µM) | 0.2 µg/mL (≈ 0.65 µM) | 3.1 µg/mL (≈ 10.1 µM) | 1.6 µg/mL (≈ 5.2 µM) | – | – | 100% | 69% | – | 40% | – | – |
| CN(C/C=C/C(=O)OCc1ccccc1)Cc1cccc2ccccc12 | < 1.6 µg/mL | < 1.6 µg/mL | > 100 µg/mL | < 1.6 µg/mL | 12.5 µg/mL (≈ 36.2 µM) | > 100 µg/mL | – | – | – | – | 0% | – | 0% | 8% |
| CC(c1cccc2ccccc12)N(C)C/C=C/c1ccccc1 (configuration not stated) | 0.4 µg/mL (≈ 1.33 µM) | 0.1 µg/mL (≈ 0.332 µM) | 50 µg/mL (≈ 166 µM) | 0.2 µg/mL (≈ 0.663 µM) | 3.1 µg/mL (≈ 10.3 µM) | 3.1 µg/mL (≈ 10.3 µM) | – | – | 100% | 75% | 15% | – | – | – |
| CN(C/C=C/c1ccccc1)CC1CCCc2ccccc21 (configuration not stated) | 50 µg/mL (≈ 172 µM) | – | > 100 µg/mL | 50 µg/mL (≈ 172 µM) | 100 µg/mL (≈ 343 µM) | > 100 µg/mL | 6.2 µg/mL (≈ 21.3 µM) | – | – | – | – | – | – | – |
| CN(C/C=C/c1ccccc1)c1cccc2ccccc12 | > 100 µg/mL | – | > 100 µg/mL | > 100 µg/mL | > 100 µg/mL | > 100 µg/mL | 6.2 µg/mL (≈ 22.7 µM) | – | – | – | – | – | – | – |
| CN(C/C=C/c1ccccc1)Cc1ccc2c(c1)C1CCC2C1 (configuration not stated) | 50 µg/mL (≈ 165 µM) | – | > 100 µg/mL | 12.5 µg/mL (≈ 41.2 µM) | 100 µg/mL (≈ 330 µM) | > 100 µg/mL | 6.2 µg/mL (≈ 20.4 µM) | – | – | – | – | – | – | – |

More lines, main results first:

| MIC [1] | MIC [2] | MIC [3] | MIC [5] | MIC [6] | MIC [8] | MIC [10] | MIC [14] | Compound | Activity [4] | Activity [7] | Activity [9] | Activity [11] | Activity [12] | Activity [13] |
| --- | --- | --- | --- | --- | --- | --- | --- | --- | --- | --- | --- | --- | --- | --- |
| 0.2 µg/mL (≈ 0.696 µM) | 0.1 µg/mL (≈ 0.348 µM) | 25 µg/mL (≈ 87 µM) | 0.2 µg/mL (≈ 0.696 µM) | 3.1 µg/mL (≈ 10.8 µM) | 3.1 µg/mL (≈ 10.8 µM) | – | – | CN(C/C=C\c1ccccc1)Cc1cccc2ccccc12 | 100% | 47% | 34% | – | – | – |
| 0.2 µg/mL (≈ 0.682 µM) | 0.1 µg/mL (≈ 0.341 µM) | 100 µg/mL (≈ 341 µM) | 0.2 µg/mL (≈ 0.682 µM) | 3.1 µg/mL (≈ 10.6 µM) | 6.2 µg/mL (≈ 21.1 µM) | – | – | CN(C/C=C/c1cccs1)Cc1cccc2ccccc12 | 96% | 56% | 13% | – | – | – |
| 0.2 µg/mL (≈ 0.721 µM) | 0.1 µg/mL (≈ 0.36 µM) | 50 µg/mL (≈ 180 µM) | 0.2 µg/mL (≈ 0.721 µM) | 3.1 µg/mL (≈ 11.2 µM) | 6.2 µg/mL (≈ 22.3 µM) | – | – | CN(C/C=C/C1=CCCC1)Cc1cccc2ccccc12 | 100% | 91% | 30% | – | – | – |
| < 1.6 µg/mL | < 1.6 µg/mL | > 100 µg/mL | < 1.6 µg/mL | 12.5 µg/mL (≈ 41.5 µM) | 50 µg/mL (≈ 166 µM) | – | – | Cc1ccc(/C=C/CN(C)Cc2cccc3ccccc23)cc1 | 50% | 22% | 7% | – | – | – |
| 0.2 µg/mL (≈ 0.655 µM) | 0.1 µg/mL (≈ 0.327 µM) | 25 µg/mL (≈ 81.9 µM) | 0.1 µg/mL (≈ 0.327 µM) | 1.6 µg/mL (≈ 5.24 µM) | 3.1 µg/mL (≈ 10.2 µM) | – | – | CN(C/C=C/c1ccc(F)cc1)Cc1cccc2ccccc12 | 100% | 82% | 21% | – | – | – |
| 1.6 µg/mL (≈ 5.55 µM) | 1.6 µg/mL (≈ 5.55 µM) | > 100 µg/mL | 1.6 µg/mL (≈ 5.55 µM) | 12.5 µg/mL (≈ 43.3 µM) | 2.5 µg/mL (≈ 8.67 µM) | – | – | CN(C/C=C/c1ccccc1)Cc1ccnc2ccccc12 | 3% | 0% | 0% | – | – | – |
| 0.4 µg/mL (≈ 1.24 µM) | 0.2 µg/mL (≈ 0.621 µM) | > 100 µg/mL | 0.4 µg/mL (≈ 1.24 µM) | 3.1 µg/mL (≈ 9.63 µM) | 100 µg/mL (≈ 311 µM) | – | – | CN(C/C=C/c1ccc(Cl)cc1)Cc1cccc2ccccc12 | 44% | 25% | 0% | – | – | – |
| 50 µg/mL (≈ 165 µM) | – | > 100 µg/mL | 50 µg/mL (≈ 165 µM) | 100 µg/mL (≈ 330 µM) | > 100 µg/mL | 25 µg/mL (≈ 82.4 µM) | – | CN(C/C=C/c1ccccc1)Cc1c(O)ccc2ccccc12 | – | – | – | – | – | – |
| 3.1 µg/mL (≈ 10.3 µM) | – | 100 µg/mL (≈ 332 µM) | 6.2 µg/mL (≈ 20.6 µM) | 100 µg/mL (≈ 332 µM) | > 100 µg/mL | 3.1 µg/mL (≈ 10.3 µM) | – | CN(CC/C=C/c1ccccc1)Cc1cccc2ccccc12 | – | – | – | – | – | – |
| 0.1 µg/mL (≈ 0.348 µM) | – | 12.5 µg/mL (≈ 43.5 µM) | 0.1 µg/mL (≈ 0.348 µM) | 1.6 µg/mL (≈ 5.57 µM) | – | 0.05 µg/mL (≈ 0.174 µM) | 1.6 µg/mL (≈ 5.57 µM) | CN(C/C=C/c1ccccc1)Cc1cccc2ccccc12 [NAFTIFINE] | 100% | 88% | 35% | – | – | – |
| 0.2 µg/mL (≈ 0.682 µM) | 0.1 µg/mL (≈ 0.341 µM) | 50 µg/mL (≈ 170 µM) | 0.1 µg/mL (≈ 0.341 µM) | 3.1 µg/mL (≈ 10.6 µM) | 6.2 µg/mL (≈ 21.1 µM) | – | – | CN(C/C=C/c1ccsc1)Cc1cccc2ccccc12 | 100% | 47% | 7% | – | – | – |
